Reference: article PMC3353973 (PLoS ONE, 2012)
Numbered stars: 1 amine (or outer) side, 2 acyl side, 3 side chain; on linkers, the order of the positions; unused ones are H or OH. Bridge positions count the residues as written; N and C are the ends. I, II: the chains in the order shown. X1 = CC(C)CCC[C@@H](C)[C@H]1CC[C@H]2[C@@H]3CC=C4C[C@@H](OCCN(CCNC(=O)CCOCCOCCOCCOCCNC(=O)CCCN5C(=O)CC([*:1])C5=O)CCNC(=O)CCOCCOCCOCCOCCNC(=O)CCCN5C(=O)CC([*:2])C5=O)CC[C@]4(C)[C@H]3CC[C@]12C

Conditions: hamster, in vivo

With “I: Ac-VALDPIDISIVLNKAKSDLEESKEWIRRSNGKLDSIGSGSGC-NH2 / II: Ac-VALDPIDISIVLNKAKSDLEESKEWIRRSNGKLDSIGSGSGC-NH2 (linker I:42-II:42 via X1) [HPIV-P4]” the “Apparent toxicity in mock-infected animals” value was “did not result in any apparent toxicity”.
